Measured values as given in US4587248A, “4-alkyl-thiophenyl-ethanolamines, having an activity the cerebral circulation, the blood platelet-aggregation and the lipenia” (priority 1981, dated 1986).
Read-outs that look alike come from different tables or passages of the source.

Tests used:
[1] = test system: isolated intestines of rats; assay: spasmolytic activity in vitro on isolated intestines of rats
[2] = test system: isolated intestines of Guinea pigs; assay: spasmolytic activity in vitro on isolated intestines of Guinea pigs
[3] = test system: contractions caused by norepinephrine on the deferent duct; assay: contractions caused by norepinephrine on the deferent duct (Barnett et al)
isolated rat aorta = assay: contractions of isolated rat aorta (Godfraind and Kaba 1969)
[4] = test system: depolarized aorta of rats; assay: contraction-promoting effect of bivalent calcium ions on the depolarized aorta of rats (Godfraind and Kaba 1972)
mice = details: for Slope (fiducial limits): LD50, mice; for LD50, fiducial limits / LD50, fiducial limits (micromol/kg equivalent): mice; for LD50, fiducial limits (micromol/kg equivalent): in brackets
in vivo = details: mouse, ip
rats = details: for LD50, fiducial limits / LD50, fiducial limits (micromol/kg equivalent): rats; for Slope (fiducial limits): LD50, rats; for LD50, fiducial limits (micromol/kg equivalent): in brackets

For `CC(C)Sc1ccc([C@@H](O)[C@@H](C)N2CCN(C(=O)C=Cc3ccccc3)CC2)cc1` (relative stereo) [1-(4-isopropylthiophenyl)-2-(4-cinnamoyl-piperazine-1-yl)-1-propanol], the spasmolytic activity [1] was “considerable spasmolytic activity”, the spasmolytic activity [2] was “considerable spasmolytic activity” and the “inhibition of contractions caused by norepinephrine on the deferent duct” value [3] was “inhibit the contractions caused by norepinephrine”. The “inhibition of contractions of isolated rat aorta” value (isolated rat aorta) was “inhibit the contractions of isolated rat aorta” and the “inhibition of the contraction-promoting effect of bivalent calcium ions on the depolarized aorta” value [4] was “has been inhibited”.

With `CC(C)Sc1ccc([C@@H](O)[C@H](C)N2CCN(C(=O)C=Cc3ccccc3)CC2)cc1` (relative stereo) [1-(4-isopropylthiophenyl)-2-(4-cinnamoyl-piperazine-1-yl)-1-propanol] the spasmolytic activity [1] was “considerable spasmolytic activity”, the spasmolytic activity [2] was “considerable spasmolytic activity” and the “inhibition of contractions caused by norepinephrine on the deferent duct” value [3] was “inhibit the contractions caused by norepinephrine”. The “inhibition of contractions of isolated rat aorta” value (isolated rat aorta) was “inhibit the contractions of isolated rat aorta”, the “inhibition of the contraction-promoting effect of bivalent calcium ions on the depolarized aorta” value [4] was “has been inhibited” and the “Slope (fiducial limits)” value (mice; intraperitoneally) was 1.36 (1.14-1.47). The “Slope (fiducial limits)” value (mice; orally) was 1.25 (1.10-1.42), the “LD50, fiducial limits” value (mice; intraperitoneally (TABLE 2)) was 782-1082 mg/kg b.w and the “LD50, fiducial limits (micromol/kg equivalent)” value (mice; intraperitoneally (TABLE 2)) was 1842 to 2548 µmol/kg. For the same molecule, the “LD50, fiducial limits” value (mice; orally (TABLE 2)) was 3166-4208 mg/kg b.w and the “LD50, fiducial limits (micromol/kg equivalent)” value (mice; orally (TABLE 2)) was 6867 to 9127 µmol/kg.

Work on `CC(C)Sc1ccc([C@@H](O)[C@H](C)N2CCN(C(=O)C=Cc3ccccc3)CC2)cc1` (relative stereo) [Compound 1] yielded an LD50 (in vivo) of 920 mg/kg.

Molecule `CC(C)Sc1ccc([C@@H](O)[C@@H](C)N2CCN(C(=O)C=Cc3ccccc3)CC2)cc1` (relative stereo) [Compound 2] has an LD50 (in vivo) of over 4000 mg/kg.

Work on `COc1cc(C=CC(=O)N2CCN(C(C)C(O)c3ccc(SC(C)C)cc3)CC2)cc(OC)c1OC` (centres unmarked) [Compound 3] yielded an LD50 (in vivo) of over 400 mg/kg.

Work on `CC(C)Sc1ccc(C(O)C(C)N2CCN(CC=Cc3ccccc3)CC2)cc1` (centres unmarked) [Compound 4] yielded an LD50 (in vivo) of 300 mg/kg.

For `COc1cc(C=CCN2CCN(C(C)C(O)c3ccc(SC(C)C)cc3)CC2)cc(OC)c1OC` (centres unmarked) [Compound 5], the LD50 (in vivo) was 75 mg/kg.

With `CC(C)Sc1ccc(C(O)C(C)Nc2ccccc2)cc1` (centres unmarked) [Compound 6] the LD50 (in vivo) was 400 mg/kg.

Work on `CC(C)Sc1ccc(C(O)C(C)Nc2ccccc2C2CCCCC2)cc1` (centres unmarked) [Compound 7] yielded an LD50 (in vivo) of over 400 mg/kg.

For `CC(C)Sc1ccc(C(O)C(C)Nc2cccc(C3CCCCC3)c2)cc1` (centres unmarked) [Compound 8], the LD50 (in vivo) was 500 mg/kg.

`CC(C)Sc1ccc(C(O)C(C)Nc2ccc(C3CCCCC3)cc2)cc1` (centres unmarked) [Compound 9] showed an LD50 (in vivo) of over 400 mg/kg.

`CC(C)Sc1ccc(C(O)C(C)NC2CCCCC2c2ccccc2)cc1` (centres unmarked) [Compound 11] showed an LD50 (in vivo) of over 400 mg/kg.

With `CC(C)Sc1ccc(C(O)C(C)NC2CCC(c3ccccc3)CC2)cc1` (centres unmarked) [Compound 13] the LD50 (in vivo) was 150 mg/kg.

In the case of `Fc1ccc(C(c2ccc(F)cc2)N2CCN(C/C=C/c3ccccc3)CC2)cc1` [Flunarizine], the “LD50, fiducial limits” value (mice; intraperitoneally (TABLE 2)) is reported as 325-386 mg/kg b.w, the “LD50, fiducial limits” value (mice; orally (TABLE 2)) is reported as 498-687 mg/kg b.w and the “LD50, fiducial limits” value (rats; intraperitoneally (TABLE 2)) is reported as 332-543 mg/kg b.w. The “LD50, fiducial limits” value (rats; orally (TABLE 2)) was 1714-2773 mg/kg b.w.

With `CCCCCCCCNC(C)C(O)c1ccc(SC(C)C)cc1` (centres unmarked) [Suloctidil] the “Slope (fiducial limits)” value (mice; intraperitoneally) was 1.55 (1.33-1.82), the “Slope (fiducial limits)” value (mice; orally) was 1.24 (1.18-1.30) and the “LD50, fiducial limits” value (mice; intraperitoneally (TABLE 2)) was 26.8-39.4 mg/kg b.w. The “LD50, fiducial limits (micromol/kg equivalent)” value (mice; intraperitoneally (TABLE 2)) was 70.4 to 116.7 µmol/kg, the “LD50, fiducial limits” value (mice; orally (TABLE 2)) was 2016-2511 mg/kg b.w and the “LD50, fiducial limits (micromol/kg equivalent)” value (mice; orally (TABLE 2)) was 5972 to 7439 µmol/kg. For the same molecule, the “Slope (fiducial limits)” value (rats; intraperitoneally) was 1.86 (1.42-2.44), the “Slope (fiducial limits)” value (rats; orally) was 1.18 (1.13-1.22) and the “LD50, fiducial limits” value (rats; intraperitoneally (TABLE 2)) was 32-69 mg/kg b.w. The “LD50, fiducial limits (micromol/kg equivalent)” value (rats; intraperitoneally (TABLE 2)) was 94.8 to 204.4 µmol/kg, the “LD50, fiducial limits” value (rats; orally (TABLE 2)) was 1603-1976 mg/kg b.w and the “LD50, fiducial limits (micromol/kg equivalent)” value (rats; orally (TABLE 2)) was 4749 to 5854 µmol/kg. For the same molecule, the LD50 (in vivo) was 32.5 mg/kg.
